According to paper PMC12624955, “Exploring diarylheptanoid derivatives to target LIMK1 as potential agents against colorectal cancer” (Journal of Enzyme Inhibition and Medicinal Chemistry, 2025):

Tests used:
LIMK1 = molecular target: T1, LIMK1 (Homo sapiens, UniProt P53667); test: LanthaScreen Eu kinase binding assay (SelectScreen), LIMK1 inhibition
T1 construct: purchased Thermo Fisher Scientific (SelectScreen Kinase assay service)
Method: The inhibitory activities of the compounds against kinases were tested using the SelectScreen Kinase assay from Thermo Fisher Scientific in Waltham, MA, USA. The LanthaScreen Eu kinase binding assay was used to validate the LIMK1 inhibition activity of the compounds, and was performed according to the manufacturer’s protocol (https://www.thermofisher.com/tw/zt/home/industrial/pharma-biopharma/drug-discovery-development/target-and-lead-identification-and-validation/kinasebiology/kinase-activity-assays/lanthascreentm-eu-kinase-binding-assay/lanthascreen-eu-kinase-binding-assay-validation-table.html). This endpoint assay quantifies inhibitor binding through the displacement of a fluorescently labelled ATP-competitive tracer from LIMK1. A mixture of the 100× compounds, 2× LIMK1/antibody mixture (Eu-anti-His), 4× tracer 236, and kinase buffer were mixed sequentially. After incubation at room temperature for 1 h, the mixture was analysed using a fluorescence plate reader. The kinase inhibition assay results were expressed as the average of two replicates.

DAPK1 = molecular target: T2, DAPK1 (Homo sapiens, UniProt P53355); test: SelectScreen kinase panel, Adapta Universal kinase assay; format: biochemical; settings: read-out: Inhibition percentage at 1 μM
T2 construct: purchased Thermo Fisher Scientific SelectScreen
T2 sequence (P53355 whole entry): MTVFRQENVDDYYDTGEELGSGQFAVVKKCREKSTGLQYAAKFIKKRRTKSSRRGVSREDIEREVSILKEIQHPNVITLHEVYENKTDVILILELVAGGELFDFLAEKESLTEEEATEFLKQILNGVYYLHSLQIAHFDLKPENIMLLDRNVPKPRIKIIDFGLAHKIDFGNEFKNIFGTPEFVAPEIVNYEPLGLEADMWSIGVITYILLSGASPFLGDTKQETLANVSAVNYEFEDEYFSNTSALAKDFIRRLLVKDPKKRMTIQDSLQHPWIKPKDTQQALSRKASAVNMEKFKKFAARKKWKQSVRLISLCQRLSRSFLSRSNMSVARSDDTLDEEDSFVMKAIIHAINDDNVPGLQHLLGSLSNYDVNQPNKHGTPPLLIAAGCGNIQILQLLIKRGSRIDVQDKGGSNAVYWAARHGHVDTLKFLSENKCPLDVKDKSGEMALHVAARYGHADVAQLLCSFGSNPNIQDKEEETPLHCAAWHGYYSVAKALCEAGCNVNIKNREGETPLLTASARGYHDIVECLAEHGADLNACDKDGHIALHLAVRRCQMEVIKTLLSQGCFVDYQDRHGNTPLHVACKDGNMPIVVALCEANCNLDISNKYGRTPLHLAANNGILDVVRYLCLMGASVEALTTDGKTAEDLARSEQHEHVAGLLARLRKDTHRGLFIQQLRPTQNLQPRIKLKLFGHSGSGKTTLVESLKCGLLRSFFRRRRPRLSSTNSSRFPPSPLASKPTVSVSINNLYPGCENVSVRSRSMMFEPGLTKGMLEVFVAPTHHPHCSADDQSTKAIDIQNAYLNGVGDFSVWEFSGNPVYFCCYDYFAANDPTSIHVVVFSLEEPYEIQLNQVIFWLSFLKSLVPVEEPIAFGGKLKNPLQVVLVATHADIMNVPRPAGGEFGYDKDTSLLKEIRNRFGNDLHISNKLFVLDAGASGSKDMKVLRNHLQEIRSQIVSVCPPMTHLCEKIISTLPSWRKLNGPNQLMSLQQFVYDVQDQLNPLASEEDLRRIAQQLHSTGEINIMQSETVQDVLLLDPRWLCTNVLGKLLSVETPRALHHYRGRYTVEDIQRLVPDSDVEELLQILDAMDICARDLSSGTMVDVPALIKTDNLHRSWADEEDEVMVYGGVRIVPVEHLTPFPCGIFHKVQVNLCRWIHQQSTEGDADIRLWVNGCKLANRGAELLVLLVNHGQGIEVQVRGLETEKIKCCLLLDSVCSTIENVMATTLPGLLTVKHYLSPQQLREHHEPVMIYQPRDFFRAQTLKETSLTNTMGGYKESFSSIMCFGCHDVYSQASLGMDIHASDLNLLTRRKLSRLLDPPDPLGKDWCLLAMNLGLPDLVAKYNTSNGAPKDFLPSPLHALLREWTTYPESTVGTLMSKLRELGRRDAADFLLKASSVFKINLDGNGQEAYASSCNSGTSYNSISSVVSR
Method: Kinase panel screening was carried out using the SelectScreen Kinase Assay (Thermo Fisher Scientific, Waltham, MA, USA). Three complementary assay formats were applied: the Z′-LYTE kinase assay, LanthaScreen Eu kinase binding assay, and Adapta Universal kinase assay. The kinases selected for this study and the corresponding assay formats are summarised in Supplementary Table S1. The Adapta Universal Kinase Assay (Thermo Fisher Scientific, Waltham, MA, USA) was used to assess kinase activity. This homogeneous, fluorescence-based immunoassay quantifies kinase activity by detecting ADP produced during the enzymatic reaction, according to the manufacturer’s instructions (https://www.thermofisher.com/tw/zt/home/industrial/pharma-biopharma/drug-discovery-development/target-and-lead-identification-and-validation/kinasebiology/kinase-activity-assays/adapta-universal-kinase-assay.html).

[1] = system: panel of 40 kinases from various families; test: Kinase panel screening (SelectScreen), whole panel; format: biochemical; settings: all 40 kinases; 1 μM
Method: Kinase panel screening was carried out using the SelectScreen Kinase Assay (Thermo Fisher Scientific, Waltham, MA, USA). Three complementary assay formats were applied: the Z′-LYTE kinase assay, LanthaScreen Eu kinase binding assay, and Adapta Universal kinase assay. The kinases selected for this study and the corresponding assay formats are summarised in Supplementary Table S1.
The Z′-LYTE Kinase Assay (Thermo Fisher Scientific, Waltham, MA, USA) was used to evaluate selected kinases’ activity, according to the manufacturer’s instructions (https://www.thermofisher.com/tw/zt/home/industrial/pharma-biopharma/drug-discovery-development/target-and-lead-identification-and-validation/kinasebiology/kinase-activity-assays/z-lyte/z-lyte-reactivity-table.html). This endpoint assay quantifies kinase activity by detecting peptide substrate phosphorylation. Briefly, a 2× mixture of selected kinase and relevant substrate was prepared in kinase buffer (0.01% polyoxyethylene lauryl ether (BRIJ-35), 50 mM 4-(2-hydroxyethyl)-1-piperazineethanesulfonic acid (HEPES), pH 7.5, 1 mM ethylene glycol-bis(β-aminoethyl ether)-N,N,N′,N′-tetraacetic acid (EGTA), and 10 mM MgCl2). After 1 h incubation at room temperature, 5 μl of 1:128 diluted development reagent solution was added, followed by an additional 1 h incubation. Fluorescence was recorded using a multimode plate reader. […]

HCT-116 [2] = test: MTT assay (cell viability); format: cell-based; settings: Homo sapiens, 72 h, mean ± SD
Method: (§1) Colorectal cell line, HCT-116, was purchased from the Bioresource Collection and Research Centre (BCRC, Hsinchu, Taiwan), while HT-29 was obtained from the American Type Culture Collection (ATCC, Manassas, VA, USA). Both cell lines were maintained in McCoy’s 5 A medium (with L-glutamine and 2.2 g/L NaHCO3, M4892, Sigma) supplemented with 10% foetal bovine serum (Corning Incorporated, NY, USA) and 1% penicillin–streptomycin–amphotericin B (100 unit/ml penicillin G, 0.1 mg/ml streptomycin sulphate, 0.25 μg/ml amphotericin B, Corning Incorporated, NY, USA). All cultures were maintained in a humidified incubator at 37 °C with 5% CO2.
(§2) Cells were seeded in 96-well plates at a density of 3 × 10^3 cells/well in 100 μl of culture medium and treated with compounds at the indicated concentrations (0.3, 1, 3, 10, and 30 μM) for 72 h. Following treatment, the 3-(4,5-dimethylthiazol-2-yl)-2,5-diphenyltetrazolium bromide (MTT) solution (5 mg/ml in Phosphate-buffered saline (PBS)) was added to each well to reach a final concentration of 0.5 mg/ml, and the cells were incubated at 37 °C for 1 h. The resulting formazan crystal was dissolved in 100 µl of DMSO, and the absorbance was measured at 550 nm using an ELISA reader (Molecular Device, Sunnyvale, CA, USA).

HT-29 [3] = test: MTT assay (cell viability); format: cell-based; settings: Homo sapiens, 72 h, mean ± SD
Method: as §1, §2

HCT-116 [4] = test: Sulforhodamine B assay (cell proliferation); format: cell-based; settings: Homo sapiens, SRB assay, 72 h, mean ± SD
Method: as §1
Cells were seeded in 96-well plates at a density of 3 × 10^3 cells/well in 100 μl of culture medium and treated with compounds at the indicated concentrations for 72 h. After treatment, cells were fixed with 10% trichloroacetic acid for 20 min and washed with H2O. The cells were then stained with 0.4% sulforhodamine B (SRB) in 1% acetic acid for 20 min, followed by two washes with 1% acetic acid. After the well-dried, the protein-bound dye was dissolved in 100 µl of 10 mM Tris base solution, and the absorbance was measured at 515 nm using an ELISA reader (Molecular Device, Sunnyvale, CA, USA).

HCT-116 [5] = test: Analysis of cell cycle by flow cytometry; format: cell-based; settings: HCT116; 1, 3, 10, and 30 μM for 72 h
Method: (§3) Cells were seeded in six-well plates at a density of 5 × 10^5 cells/well in a 2 ml culture medium and treated with compounds at the indicated concentration for 72 h. After treatment, cells were collected and fixed with 75% (v/v) ice-cold ethanol at −20 °C for 20 min. The cells were then centrifuged to remove the buffer, resuspended, and stained with 0.5 ml of propidium iodide (PI) staining buffer (80 µg/ml PI, […] RNase A, and 1% Triton X-100 in PBS). The cell cycle distribution was analysed using a BD Accuri™ Flow cytometer and software (Becton Dickinson, Mountain View, CA, USA).

HT-29 [6] = test: Analysis of cell cycle by flow cytometry; format: cell-based; settings: 1, 3, 10, and 30 μM for 72 h
Method: as §3

T1 sequence (P53667 whole entry): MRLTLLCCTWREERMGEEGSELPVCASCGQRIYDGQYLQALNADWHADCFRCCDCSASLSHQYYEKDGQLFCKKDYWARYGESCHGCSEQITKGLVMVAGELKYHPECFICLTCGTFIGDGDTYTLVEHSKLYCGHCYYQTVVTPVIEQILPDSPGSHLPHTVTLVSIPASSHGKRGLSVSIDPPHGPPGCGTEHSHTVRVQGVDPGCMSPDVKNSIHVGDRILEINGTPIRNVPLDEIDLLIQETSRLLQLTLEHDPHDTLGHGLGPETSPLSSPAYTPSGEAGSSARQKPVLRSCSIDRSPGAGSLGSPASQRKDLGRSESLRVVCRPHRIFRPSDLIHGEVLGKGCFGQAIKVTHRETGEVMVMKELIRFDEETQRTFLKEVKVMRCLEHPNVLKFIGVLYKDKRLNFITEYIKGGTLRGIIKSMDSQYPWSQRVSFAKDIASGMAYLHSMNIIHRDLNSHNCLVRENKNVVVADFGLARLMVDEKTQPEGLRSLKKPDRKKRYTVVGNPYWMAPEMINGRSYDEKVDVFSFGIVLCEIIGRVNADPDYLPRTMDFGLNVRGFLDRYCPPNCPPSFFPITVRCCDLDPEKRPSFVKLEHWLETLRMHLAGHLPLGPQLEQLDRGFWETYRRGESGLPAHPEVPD

IC50 (LIMK1): 0.94 µM
inhibition at 1 µM (LIMK1; 1 μM, Figure 4(B), read-out: Inhibition percentage at 1 μM): > 50%
inhibition at 10 µM (LIMK1; compound at 10 μM, average of two replicates, read-out: Inhibition percentage at 10 μM): 109%
inhibition at 1 µM (DAPK1): -15%
inhibition percentages across the panel of 40 kinases [1]: below 50%
IC50 (HCT-116 [2]): 18.2 ± 0.9 µM
IC50 (HT-29 [3]): 28.8 ± 0.4 µM
GI50 (HCT-116 [4]): 14.7 ± 0.8 µM
Structure (SMILES): O=C(/C=C/c1ccc(O)c(O)c1)CCCCn1ccc2c(O)cccc21 [Compound 13a, (E)-1-(3,4-dihydroxyphenyl)-7-(4-hydroxy-1H-indol-1-yl)hept-1-en-3-one]
G0/G1 phase population (HCT-116 [5]): decrease in the G0/G1 phase
S phase population (HCT-116 [5]): dose-dependent increase in the S phase
population of Sub-G1 cells (HCT-116 [5]): increased in a dose-dependent manner
population of Sub-G1 cells (HT-29 [6]): increased in a dose-dependent manner
